Patent publication US5741516A, “Sphingosomes for enhanced drug delivery” (priority 1995, dated 1998)
Where two headings read alike, the source gives them in different places.

How the values were obtained:
[1] = for animals that died after chemotherapy (in words): LD50 dose, within a few days; for Survival (%): 14 days
Text: Female C57BL/6 mice (average weight 15.03 g), were used and housed under standard conditions. The animals received free access to both food and water throughout the experiment after a one week acclimatization period prior to experimental manipulation. The mice were 6 weeks old on the beginning of the experiment and placed randomly in 12 groups of 5 mice per group.

tumor cells = conditions: in vitro; cited from earlier work
IL-2 = IL-2 production by mitogen-stimulated splenocytes; type: in vivo, C57BL/6 mice; conditions: vs chemotherapy-treated and PBS controls, FIG. 10B
Method: (§1) Cells from spleen, thymus and bone marrow were tested for their ability to respond to stimulation from different mitogens: ConA (1, 2.5 and 5 μg/ml) (Sigma), phytohemagglutinin (PHA) (1, and 2.5 μg/ml) (Sigma) and LPS (2.5 and 5 μg/ml) (Difco). After 72 hours of stimulation the proliferative response was measured using CellTiter 96 (Promega). Simultaneously, mitogen stimulated splenocytes were set up for cytokine production after ConA (2.5 μg/ml) and lipopolysaccharide (LPS) (2.5 μg/ml) stimulation. The supernatants were collected after 24 hr. and 48 hr. and tested for Tumor Necrosis Factor-α (TNF-α) and Interleukin-2 (IL-2) production using the direct ELISA method. Supernatants from unstimulated cells served as controls. Results are expressed as pg/ml of TNF-α (sensitivity of the assay is <25 pg/ml) or IL-2 (sensitivity of the assay is <3 pg/ml).

TNF-α = assay: TNF production by mitogen-stimulated splenocytes; type: in vivo, C57BL/6 mice; conditions: vs chemotherapy-treated and PBS controls, FIG. 10A
Method: as §1

[2] = In vitro oral stability in gastric contents; type: physicochemical; conditions: simulated gastric contents; hydrochloric acid (pH2) with pepsin; up to 72 hours
Method: To establish an advantage for the oral route of administration, swainsonine was incubated in vitro in simulated gastric contents for various periods of time (1, 2, 4, 24, 48 and 72 hrs.) and the "oral stability" of swainsonine was determined. Swainsonine was also incubated in hydrochloric acid (pH2) containing the main gastric digestive enzyme, pepsin.

[3] = tested on: IL-1, IL-2, TNF, GM-CSF and interferons; conditions: cited from earlier work
[4] = Bioavailability of liposomal swainsonine; type: in vivo, Balb/c mice; conditions: p.o. vs i.v.
Method: Female Balb/c mice, 5-6 weeks of age, were housed under standard conditions. […] Swainsonine (Toronto Res. Chem.) was radiolabeled with tritium. Tritiated swainsonine was administered as a lipid-based formulation (L-Im) and as an aqueous formulation containing the free drug (F-Im). Tritiated swainsonine was loaded into sphingomyelin/cholesterol (Avanti Polar Labs) sphingosomes using a citrate buffer pH 2 gradient at a drug-to-lipid ratio of 0.2:1 (mol:mol) and with an efficiency of loading of 80%. Two hundred microliters of the lipid and aqueous swainsonine formulations were given orally by gavage (p.o.), intraperitoneally (i.p.), or intravenously (i.v.). Fifty microliter blood samples were collected by retroorbital bleeds at 1, 3, 6, and 24 hours after administration. The blood samples were bleached and then counted in a scintillation counter. Results were expressed as the percentage of the administered dose in the blood at various time-points after administration.

[5] = tested on: colon cancer and melanoma cancers; conditions: combined with interferon, in vivo; cited from earlier work
bone marrow [6] = conditions: cited from earlier work
bone marrow [7] = assay: Bone marrow cellularity after chemotherapy; type: in vivo, C57BL/6 mice; conditions: 14 days after chemotherapy; orally or i.p., vs GM-CSF i.p. 10 days
Method: On the 15th day after the initial chemotherapeutic dose, 4 mice from each group of the immunomodulation study (Example 6) were randomly sacrificed and up to 1 ml of blood was obtained by cardiac puncture. Circulating peripheral WBCs were counted, blood smears (for neutrophil counts) were made and plasma samples were collected and tested for cytokine production (IL-1, IL-2, TNF). Blood cytokine levels (TNF, IL-1, and IL-2) were assayed by commercially available assay kits. The spleen, thymus and bone marrow were removed and single cell suspensions were prepared. The cellularity of these lymphoid organs was assessed by trypan blue exclusion test.

A431 tumors = assay: Antitumor efficacy against A431 tumors; type: in vivo, human A431 xenograft, SCID mice; conditions: vincristine 2.0 mg/kg i.v.
Method: Tumor loading and antitumor efficacy properties of DSPC/Chol and SM/Chol liposomal formulations of vincristine were determined in mice bearing solid human A431 squamous cell xenograft tumors. These experiments were undertaken to ensure that the positive results observed in the murine ascitic P388 tumor model were representative of other tumor types. SCID mice bearing 100-200 mg solid human A431 tumors were injected i.v. with free vincristine or with liposomes of either DSPC/Chol or SM/Chol containing vincristine. Vincristine encapsulated DSPC/Chol and SM/Chol liposomes were prepared as in Example II. […] As observed in BDF1 mice bearing P388 tumors, the amount of vincristine remaining in the circulation in SM/Chol liposomes at 24 hours after injection was approximately 3-fold greater than for vincristine encapsulated in DSPC/Chol liposomes (FIG. 11A).
The antitumor efficacy of free and liposomal vincristine against A431 was closely correlated with vincristine accumulation at the tumor site (FIG. 12). […] This therapy was further enhanced by a single treatment of vincristine encapsulated in SM/Chol liposomes. […] Of the five mice (total of 10 tumors) treated with SM/Chol liposomal vincristine, 1 animal was terminated early due to tumor ulceration, not due to tumor growth.

[8] = Vincristine uptake into liposomes by pH gradient; type: physicochemical; conditions: drug/lipid 0.1/1 (wt/wt), 10 minutes at 60° C
Method: Uptake of vincristine into large unilamellar liposomes was achieved using a pH gradient-dependent procedure described by Mayer et al., Cancer Chemother. Pharmacol. 33:17-24 (1993), incorporated herein by reference. Briefly, a solution of vincristine sulfate (Oncovin®, Eli Lilly, Indianapolis, Ind.) was added to liposomes at a drug/lipid ratio of 0.1/1 (wt/wt) and equilibrated at 60° C. for 5 to 10 minutes. Vincristine uptake in response to a transmembrane pH gradient was initiated by the addition of 0.5M Na2 HPO4 to bring the external pH to 7.2-7.6.

[9] = in vivo; cited from earlier work

Question: What does the source list for `COc1cccc2c1C(=O)c1c(O)c3c(c(O)c1C2=O)C[C@@](O)(C(=O)CO)C[C@@H]3O[C@H]1C[C@H](N)[C@H](O)[C@H](C)O1` [DOX, Doxorubicin]?
Answer: animals that died after chemotherapy (in words) [1]: half; Survival (%) ([1]; i.p.): 60%

Question: Which results are given for `CN(Cc1cnc2nc(N)nc(N)c2n1)c1ccc(C(=O)N[C@@H](CCC(=O)O)C(=O)O)cc1` [MTX, methotrexate]?
Answer: animals that died after chemotherapy (in words) [1]: Half; Survival (%) ([1]; i.p.): 40%

Question: With `O[C@H]1[C@H]2[C@H](O)CCCN2C[C@H]1O` [swainsonine] as the molecule, how does the “B- and T-cell immunity, natural killer T-cell and macrophage-induced destruction of tumor cells” value (tumor cells) read?
Answer: induces B- and T-cell immunity, natural killer T-cell and macrophage-induced destruction of tumor cells in vitro

Question: And the “IL-2 level in stimulated splenocytes” value (IL-2)?
Answer: significantly elevated

Question: And the “TNF level in stimulated splenocytes” value (TNF-α)?
Answer: significantly elevated

Question: What about the “in vitro oral stability” value [2] of the same molecule?
Answer: stable under these harsh conditions for up to 72 hours

Question: What about the “production of multiple cytokines” value [3] of the same molecule?
Answer: stimulates the production of multiple cytokines

Question: And the “oral bioavailability compared to swainsonine administered intravenously” value [4]?
Answer: 60-65%

Question: And the direct anti-tumor activity [5]?
Answer: direct anti-tumor activity against colon cancer and melanoma cancers

Question: What about the “Survival (%)” value ([1]; i.p.) of the same molecule?
Answer: 100%

Question: And the “Survival (%)” value ([1]; p.o.)?
Answer: 100%

Question: What about the “survival beyond 2 weeks after chemotherapy (in words)” value ([1]; swainsonine intravenously or i.p. / GM-CSF i.p., 10 days, after Mtx or Dox) of the same molecule?
Answer: all animals

Question: What about the “survival after cytotoxic treatment (in words)” value ([1]; swainsonine p.o. 10 days after Mtx or Dox) of the same molecule?
Answer: all but one animal

Question: And the bone marrow proliferation (bone marrow [6])?
Answer: has the capacity to stimulate bone marrow proliferation

Question: What about the bone marrow cellularity (bone marrow [7]) of the same molecule?
Answer: performed as effectively as GM-CSF

Question: Which “delay in tumor growth / change in tumor size” value (A431 tumors) does the source give for `CC[C@]1(O)C[C@H]2CN(CCc3c([nH]c4ccccc34)[C@@](C(=O)OC)(c3cc4c(cc3OC)N(C=O)[C@H]3[C@@](O)(C(=O)OC)[C@H](OC(C)=O)[C@]5(CC)C=CCN6CC[C@]43[C@@H]65)C2)C1` [vincristine] here?
Answer: brief delay in tumor growth

Question: And the “time to 100% increase in tumor weight” value (A431 tumors)?
Answer: 6 to 8 days

Question: And the “time to required termination” value (A431 tumors)?
Answer: 10 to 12 days

Question: And the trapping efficiency [8]?
Answer: approximately 95%

Question: With sphingomyelin as the molecule, how does the “circulation lifetime of liposomes” value [9] read?
Answer: increase in the circulation lifetime of liposomes
